In patent US20200164005A1, “PHARMACEUTICAL COMPOSITIONS OF A BILE ACID DERIVATIVE AND MICROBIOME AND USES THEREOF” (Intercept Pharmaceuticals, Inc., priority 2017, published 2020):

Columns and labels:
[1] = system: Lactococcus lactis, Streptococcus thermophilus, and Lactobacillus casei/paracasei; test: Minimal inhibitory concentrations (MIC) of bile acids and OCA, aerobic and anaerobic; assay type: cell-based
Text: FIGS. 58A-58B: Minimal inhibitory concentrations (MICs) of selected Gram-positive bacterial species in response treatment with two endogenous bile acids and OCA. […] N=3 per measurement. […] N=3 per measurement.
a (Begley et al., FEMS Microbiol Rev. 29, 625-651 (2005)), and conducted genomic analysis is consistent with the notion that specific Gram-positive taxa become proportionally more abundant during OCA administration due to enhanced proliferation. FXR-dependent inhibition of endogenous bile acid synthesis by OCA may reduce the growth inhibitory effects on Gram-positive bacterial species that are normally sensitive to bile acids. To determine if the three bacterial species with the greatest representation of pathways associated with OCA (FIG. 57A) are sensitive to bile acids, the species-specific minimal inhibitory concentrations (MIC) of the two most predominant bile acids in the human small intestine, glycochenodeoxycholic acid (GCDCA) and glycocholic acid (GCA) were determined (FIG. 58A). Since the environment of the small intestinal lumen may transition from an aerobic to anaerobic state along its length (He et al., Proceedings of the National Academy of Sciences of the United States of America, 96, 4586-4591 (1999)), MICs were determined under both aerobic and anaerobic conditions. […] Consistent with this notion, it has been shown that bile salt hydrolases (BSH), enzymes that are unique to bacteria resident in the mammalian gut where they can enhance bile acid tolerance (Begley et al., FEMS Microbiol Rev. 29, 625-651 (2005)), are missing from the genome of S. thermophilus, which is induced by OCA. It can be supported by showing that these species are sensitive to growth inhibition in vitro when exposed to physiologically-relevant concentrations of conjugated bile acids found in the small intestine. […] Since OCA is a bile acid analogue possibly capable of inhibiting bacterial growth, the MICs of OCA for the same bacterial species were determined (FIG. 58B). […] These findings support the notion that OCA treatment leads to the increased growth of bile acid sensitive bacterial taxa by suppressing endogenous bile acid synthesis.

[2] = Calculated small intestinal luminal concentration of OCA; parameters: species or system human
[3] = system: small intestinal microbiota; test: 16S tagged sequencing of small intestinal and fecal microbiota of OCA-treated mice; assay type: in vivo; conditions: 10 mg/kg OCA, 14 days
Text: FIG. 60: The effect of OCA on the composition of the proximal and distal small intestinal, as well as the feces, microbiota of mice based on 16S tagged sequencing.
FIG. 63: Box and whisker plots of differentially abundant taxa in the distal small intestine of mice in response to treatment with OCA relative to two controls. S24-7, Clostridiaceae, and Turibacter are differentially abundant between the MC and OCA groups (fdr=0.1759, 0.04503, and 0.2332, respectively); Sutterella and Akkermansia are differentially abundant between the control and OCA groups (fdr=0.3199 for both).
The bacterial species that increase most prominently upon OCA treatment have been reported to represent a significant proportion of the small intestinal microbiota, but are very minor constituents in stool. For example, Streptococci represent as much as 20% of the human small intestinal microbiota by 16S tagged sequencing (Dlugosz et al., Sci Rep-Uk, 5 (2015)); El Aidy et al., Curr Opin Biotechnol., 32, 14-20 (2015)). […] To determine whether OCA treatment can alter the gut microbiota composition specifically in the small intestine, mice were treated with OCA for 14 days, the microbiota composition in the proximal and distal small intestine, as well as the stool, and quantified bile acids were characterized. […] Also notable was the quantitative difference in the absolute levels of luminal bile acids in the small intestine (approximately 100-fold greater than in the feces, FIGS. 59A-59C); this is consistent with enterohepatic reabsorption of over 95% of bile acids in the terminal ileum of the small intestine (de Aguiar Vallim et al., Cell Metabolism, 17, 657-669 (2013)).

[4] = 10 mg/day dose; cited from earlier work

- calculated physiologic level that would be encountered in the human small intestine [2]: approximately 12 micromolar
Compound: CC[C@H]1[C@@H](O)[C@@H]2[C@H](CC[C@]3(C)[C@@H]([C@H](C)CCC(=O)O)CC[C@@H]23)[C@@]2(C)CC[C@@H](O)C[C@@H]12 [OCA, 3α,7α-dihydroxy-6α-ethyl-5β-cholan-24-oic acid]
- inhibition of growth of the three bacterial species (MIC determination) [1]: able to inhibit growth of all three bacterial species
- inhibition of growth at OCA concentrations calculated to be reached in the human small intestine ([1]; ˜40 mM at a 10 mg/day dose): minimal to no inhibition of growth
- Clostriciaceae family of Firmicutes in proximal and distal small intestine [3]: increased abundance
- Clostriciaceae family of Firmicutes in the feces [3]: not in the feces
- overall composition of the small intestinal microbiota ([3]; versus water and methylcellulose): different from both control groups
- OCA concentration calculated to be reached in the human small intestine [4]: ~40 µM
